Experimental data published in paper PMC2263054, “Functional evolution of the vitamin D and pregnane X receptors” (BMC Evolutionary Biology, 2007).
Counter-ions that a name gives are not always drawn. Like-named read-outs stand apart in the source and are kept apart here.

How the values were obtained:
Type in all cases: cell-based
[1] = target: T1, Sea lamprey VDR (Petromyzon marinus, UniProt Q7ZZY9)
T1 sequence (Q7ZZY9 92-406): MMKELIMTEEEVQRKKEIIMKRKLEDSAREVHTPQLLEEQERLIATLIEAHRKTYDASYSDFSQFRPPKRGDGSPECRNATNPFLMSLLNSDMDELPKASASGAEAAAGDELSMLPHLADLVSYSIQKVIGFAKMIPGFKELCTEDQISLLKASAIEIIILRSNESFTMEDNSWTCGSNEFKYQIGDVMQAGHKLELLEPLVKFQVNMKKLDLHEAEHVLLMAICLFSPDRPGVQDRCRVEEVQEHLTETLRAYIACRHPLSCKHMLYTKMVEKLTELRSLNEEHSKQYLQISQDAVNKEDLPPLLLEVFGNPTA

[2] = target: T2, Xenopus laevis VDR (Xenopus laevis, UniProt O13124); test: luciferase reporter transactivation assay in HepG2-NTCP cells, GAL4/xlVDR LBD chimera with tk-UAS-Luc; details: for Effect on Xenopus laevis VDR: screening for activators, at least three concentrations of each drug
T2 sequence (O13124 90-422): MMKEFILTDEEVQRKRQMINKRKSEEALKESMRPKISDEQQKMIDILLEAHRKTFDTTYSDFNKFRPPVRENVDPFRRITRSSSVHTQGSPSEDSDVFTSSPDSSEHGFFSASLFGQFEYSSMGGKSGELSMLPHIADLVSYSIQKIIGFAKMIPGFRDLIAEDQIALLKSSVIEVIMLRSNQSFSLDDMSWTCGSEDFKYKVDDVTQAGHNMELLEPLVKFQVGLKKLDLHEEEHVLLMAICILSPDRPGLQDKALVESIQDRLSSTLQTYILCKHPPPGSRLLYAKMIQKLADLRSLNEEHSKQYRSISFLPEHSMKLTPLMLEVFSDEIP

[3] = target: T3, Zebrafish VDR (Danio rerio, UniProt Q9PTN2); test: luciferase reporter transactivation assay in HepG2-NTCP cells, GAL4/zfVDR LBD chimera with tk-UAS-Luc; details: for Effect on zebrafish VDR: screening for activators, at least three concentrations of each drug
T3 sequence (Q9PTN2 121-453): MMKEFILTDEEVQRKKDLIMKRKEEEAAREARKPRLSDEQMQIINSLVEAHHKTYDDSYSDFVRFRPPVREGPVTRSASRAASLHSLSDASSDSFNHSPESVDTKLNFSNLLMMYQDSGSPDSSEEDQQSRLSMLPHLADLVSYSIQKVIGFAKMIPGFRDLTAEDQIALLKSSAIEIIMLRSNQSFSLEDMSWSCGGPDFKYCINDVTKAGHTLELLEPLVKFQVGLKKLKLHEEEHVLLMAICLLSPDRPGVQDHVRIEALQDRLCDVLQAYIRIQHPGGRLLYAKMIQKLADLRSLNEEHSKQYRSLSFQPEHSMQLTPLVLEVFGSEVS

[4] = screening for activators, at least three concentrations of each drug
[5] = HepG2-NTCP cells, luciferase reporter, unit not given, also cells saying No effect

CC1=C(/C=C/C(C)=C/C=C/C(C)=C\CO)C(C)(C)CCC1 [13-cis-Retinol]
Effect on sea lamprey VDR [1, 4]: No effect
Effect on Xenopus laevis VDR [2]: No effect
Effect on zebrafish VDR [3]: No effect

C[C@]12CCC(=O)C[C@@H]1CC[C@@H]1[C@@H]2CC[C@]2(C)C=CC[C@@H]12 [16,(5a)-Androsten-3-one]
Effect on sea lamprey VDR [1, 4]: No effect
Effect on Xenopus laevis VDR [2]: No effect
Effect on zebrafish VDR [3]: No effect

COC(=O)/C=C/c1cccc(N(Cc2ccc(-c3ccc(N(C)C)cc3)cc2)C(=O)C2CCCCC2)c1 [fexaramine]
Effect on sea lamprey VDR [1, 4]: None of these three VDRs were activated
Effect on Xenopus laevis VDR [2]: None of these three VDRs were activated
Effect on zebrafish VDR [3]: None of these three VDRs were activated

CC(=O)O[C@H]1C(=O)[C@@]2(C)[C@H]([C@H](OC(=O)c3ccccc3)[C@]3(O)C[C@H](OC(=O)[C@H](O)[C@@H](NC(=O)c4ccccc4)c4ccccc4)C(C)=C1C3(C)C)[C@]1(OC(C)=O)CO[C@@H]1C[C@@H]2O [Paclitaxel]
Effect on sea lamprey VDR [1, 4]: No effect
Effect on Xenopus laevis VDR [2]: No effect
Effect on zebrafish VDR [3]: No effect

C[C@]12CC[C@@H]3c4ccc(O)cc4CC[C@H]3[C@@H]1C[C@@H](O)[C@@H]2O [Estriol]
Effect on sea lamprey VDR [1, 4]: No effect
Effect on Xenopus laevis VDR [2]: No effect
Effect on zebrafish VDR [3]: No effect

C[C@]12CC[C@@H](O)C[C@H]1CC[C@@H]1[C@@H]2[C@@H](O)C[C@@]2(C)[C@H]1CC[C@]2(O)C(=O)CO [Tetrahydrocortisol]
Effect on sea lamprey VDR [1, 4]: No effect
Effect on Xenopus laevis VDR [2]: No effect
Effect on zebrafish VDR [3]: No effect

C[C@H](CCC(=O)O)[C@H]1CC[C@H]2[C@@H]3[C@@H](O)[C@@H](O)[C@@H]4C[C@H](O)CC[C@]4(C)[C@H]3CC[C@]12C [b-Muricholic acid]
Effect on sea lamprey VDR [1, 4]: No effect
Effect on Xenopus laevis VDR [2]: No effect
Effect on zebrafish VDR [3]: No effect

C[C@@]12CCC[C@H]1[C@@H]1CC[C@H]3C[C@@H](O)CC[C@]3(C)[C@H]1CC2 [5a-Androstan-3b-ol]
Effect on sea lamprey VDR [1, 4]: No effect
Effect on Xenopus laevis VDR [2]: No effect
Effect on zebrafish VDR [3]: No effect

CCCCCC=CCC=CCC=CCC=CCCCC(=O)O [5,8,11,14-Eicosatetranoic acid]
Effect on sea lamprey VDR [1, 4]: No effect
Effect on Xenopus laevis VDR [2]: No effect
Effect on zebrafish VDR [3]: No effect

17-Hydroxyprogesterone
Effect on sea lamprey VDR [1, 4]: No effect
Effect on Xenopus laevis VDR [2]: No effect
Effect on zebrafish VDR [3]: No effect

C[C@]12CC[C@@H](O)C[C@H]1CC[C@@H]1[C@@H]2[C@@H](O)C[C@]2(C)C(=O)CC[C@@H]12 [5b-Androstan-3a,11b-17-one]
Effect on sea lamprey VDR [1, 4]: No effect
Effect on Xenopus laevis VDR [2]: No effect
Effect on zebrafish VDR [3]: No effect

C[C@H](CCC(=O)O)[C@H]1CC[C@H]2[C@@H]3CC[C@@H]4C[C@H](O)CC[C@]4(C)[C@H]3C[C@H](O)[C@]12C [Deoxycholic acid]
Effect on sea lamprey VDR [1, 4]: No effect
Effect on Xenopus laevis VDR [2]: No effect
Effect on zebrafish VDR [3]: No effect

COc1cc(C)c(/C=C/C(C)=C/C=C/C(C)=C/C(=O)O)c(C)c1C [Aciretin]
Effect on sea lamprey VDR [1, 4]: No effect
Effect on Xenopus laevis VDR [2]: No effect
Effect on zebrafish VDR [3]: No effect

CC(C)(O)[C@H]1O[C@H]2CC[C@@]3(C)[C@@](O)(CC[C@H]4Cc5c([nH]c6ccccc56)[C@@]43C)C2=CC1=O [Paxilline]
Effect on sea lamprey VDR [1, 4]: No effect
Effect on Xenopus laevis VDR [2]: No effect
Effect on zebrafish VDR [3]: No effect

CC(C)[C@@H](O)CC[C@@H](C)[C@H]1CC[C@H]2[C@@H]3CC=C4C[C@@H](O)CC[C@]4(C)[C@H]3CC[C@]12C [24(S)-Hydroxycholesterol]
Effect on sea lamprey VDR [1, 4]: No effect
Effect on Xenopus laevis VDR [2]: No effect
Effect on zebrafish VDR [3]: No effect

C#C[C@]1(O)CC[C@H]2[C@@H]3CCC4=CC(=O)CC[C@@H]4[C@H]3CC[C@@]21C [Norethindrone]
Effect on sea lamprey VDR [1]: No effect
Effect on Xenopus laevis VDR [2]: No effect
Effect on zebrafish VDR [3]: No effect

C[C@]12CC[C@@H](O)C[C@H]1CC[C@@H]1[C@@H]2C(=O)C[C@@]2(C)[C@H]1CC[C@]2(O)[C@@H](O)CO [Cortolone]
Effect on sea lamprey VDR [1, 4]: No effect
Effect on Xenopus laevis VDR [2]: No effect
Effect on zebrafish VDR [3]: No effect

CCCOC(=O)c1ccc(O)cc1 [n-Propyl 4-hydroxybenzoate]
Effect on sea lamprey VDR [1, 4]: No effect
Effect on Xenopus laevis VDR [2]: No effect
Effect on zebrafish VDR [3]: No effect

COc1c(C)c2c(c(O)c1C/C=C(\C)CCC(=O)O)C(=O)OC2 [Mycophenolic acid]
Effect on sea lamprey VDR [1, 4]: No effect
Effect on Xenopus laevis VDR [2]: No effect
Effect on zebrafish VDR [3]: No effect

C[C@]12CC[C@@H](O)C[C@H]1CC[C@@H]1[C@@H]2C(=O)C[C@@]2(C)[C@H]1CC[C@]2(O)C(=O)CO [Tetrahydrocortisone]
Effect on sea lamprey VDR [1, 4]: No effect
Effect on Xenopus laevis VDR [2]: No effect
Effect on zebrafish VDR [3]: No effect

Cc1c(C)c2c(c(C)c1O)CC[C@@](C)(CCC[C@H](C)CCC[C@H](C)CCCC(C)C)O2 [Alpha-tocopherol]
Effect on sea lamprey VDR [1, 4]: No effect
Effect on Xenopus laevis VDR [2]: No effect
Effect on zebrafish VDR [3]: No effect

C[C@H](CCC(=O)O)[C@H]1CC[C@H]2[C@@H]3C(=O)C[C@@H]4C[C@H](O)CC[C@]4(C)[C@H]3CC(=O)[C@]12C [7,12-Diketolithocholic acid]
Effect on sea lamprey VDR [1, 4]: No effect
Effect on Xenopus laevis VDR [2]: No effect
Effect on zebrafish VDR [3]: No effect

CC(C(=O)O)c1ccc(-c2ccccc2)c(F)c1 (stereo not drawn) [Flurbiprofen]
Effect on sea lamprey VDR [1, 4]: No effect
Effect on Xenopus laevis VDR [2]: No effect
Effect on zebrafish VDR [3]: No effect

CC(C)(Oc1ccc(Cl)cc1)C(=O)O [Clofibric acid]
Effect on sea lamprey VDR [1, 4]: No effect
Effect on Xenopus laevis VDR [2]: No effect
Effect on zebrafish VDR [3]: No effect

CC(C)CCC[C@@H](C)[C@H]1CC[C@H]2[C@@H]3CC=C4C[C@@H](OS(=O)(=O)O)CC[C@]4(C)[C@H]3CC[C@]12C [Cholesteryl sulfate (5-cholesten-3b-ol), Cholesteryl sulfate]
Effect on sea lamprey VDR [1, 4]: No effect
Effect on Xenopus laevis VDR [2]: No effect
Effect on zebrafish VDR [3]: No effect

C[C@]12CC[C@@H]3c4ccc(OS(=O)(=O)O)cc4CC[C@H]3[C@@H]1CCC2=O [Estrone 3-sulfate]
Effect on sea lamprey VDR [1, 4]: No effect
Effect on Xenopus laevis VDR [2]: No effect
Effect on zebrafish VDR [3]: No effect

C[C@H](O)[C@H]1CC[C@H]2[C@@H]3CC[C@@H]4C[C@H](O)CC[C@]4(C)[C@H]3CC[C@]12C [5b-Pregnan-3a,20a-diol]
Effect on sea lamprey VDR [1, 4]: No effect
Effect on Xenopus laevis VDR [2]: No effect
Effect on zebrafish VDR [3]: No effect

C[C@H](CCC(=O)O)[C@H]1CC[C@H]2[C@@H]3CC[C@@H]4C[C@H](O)CC[C@]4(C)[C@H]3CC[C@]12C [Lithocholic acid]
Sea lamprey VDR EC50 ± SD [1, 5]: No effect
Xenopus VDR EC50 ± SD [2, 5]: No effect
Zebrafish VDR EC50 ± SD [3, 5]: No effect
